“Also recorded” adds a separate entry of the source. Where a SMILES comes first, the peptide text is derived from it. Where no end group is shown, it is not given here.
Tests used:
E. coli K88 = test: microbe, parasite or virus in culture; assay type: cell-based; conditions: agar diffusion, fermentation supernatant, not trypsin-treated
pepsin = test: Remaining amount by RP-HPLC after pepsin treatment; assay type: in vitro ADME; conditions: pepsin (isolated protease); pepsin treated for 3 h; read-out RP-HPLC; Table S2
chymotrypsin [1] = test: Remaining amount by RP-HPLC after chymotrypsin treatment; assay type: in vitro ADME; conditions: chymotrypsin (isolated protease); chymotrypsin treated for 3 h; read-out RP-HPLC; Table S2
indicator bacteria = conditions: second to seventh codons of mccA replaced; cited from earlier work
Text: The heptapeptide precursor of McC, f-MRTGNAN, is encoded by the first gene in the mcc gene clusters, mccA [11]. Considering its protein nature, it is suitable for gene-based peptide engineering. Kazakov et al. first applied site-directed mutagenesis on the mccA gene, systematically replacing the second to seventh codons of mccA encoding 19 standard amino acids for a total of 114 mutations.

trypsin = test: Remaining amount by RP-HPLC after trypsin treatment; conditions: trypsin treatment 3 h
Protocol: To test whether the variants were tolerant to trypsin or other digestive enzymes, the amount of the remaining McC and its analogues remaining was determined by RP-HPLC after trypsin, pepsin, and chymotrypsin treated for 3 h (Table S2), and the inhibition zones of trypsin-treated variants were tested using the same method (Table 2).
The fermentation broth was collected via centrifugation at 12,000× g at 4 °C for 10 min; the supernatants contained the McC variants. The supernatants and trypsin were mixed at a ratio of 9:1 (v/v; the final concentration of trypsin was 50 μg/mL) and incubated in a bath at 37 °C for 3 h. The pH was adjusted to 6.8. The pH value of the fermentation broth was measured before and after treatment, and an approximate pH value of 7 was considered normal.

[2] = cited from earlier work
Text: (§1) The McC as a new generation of antimicrobials is now receiving increased attention because of its antimicrobial activity against a wide range of Gram-negative bacteria, including Escherichia, Klebsiella, Salmonella, Shigella, and Proteus species. However, […] proteolytic enzymes in the stomach and the small intestine, such as pepsin, trypsin, and chymotrypsin, need to be considered before the application of McC or other microcins in different fields.

chymotrypsin [3] = conditions: cited from earlier work
Text: as §1

| Compound | bacteriostatic effect on indicator strain K88 (E. coli K88) | remaining at 3 h (pepsin) | remaining at 3 h (chymotrypsin [1]) | antimicrobial activity of mccA substitution variants (indicator bacteria) | degradation by / resistance to trypsin (trypsin) | stability in the gastrointestinal tract [2] | degradation upon exposure to chymotrypsin (chymotrypsin [3]) |
| --- | --- | --- | --- | --- | --- | --- | --- |
| CSCC[C@H](NC=O)C(=O)N[C@@H](CCC(=O)O)C(=O)N[C@H](C(=O)NCC(=O)N[C@@H](CC(N)=O)C(=O)N[C@@H](C)C(=O)N[C@@H](CC(=O)O)C(=O)NP(=O)(OCCCN)OC[C@H]1O[C@@H](n2cnc3c(N)ncnc32)[C@H](O)[C@@H]1O)[C@@H](C)O (stereo partly shown) [R2E] (HELM PEPTIDE1{[O=C[*:2]].M.E.T.G.N.A.[NCCCOP(=O)(NC(=O)[C@H](CC(=O)O)N[*:1])OC[C@H]1O[C@@H](n2cnc3c(N)ncnc32)[C@H](O)[C@@H]1O]}$$$$V2.0) | no bacteriostatic effects | 90.72 ± 0.74% | 38.4 ± 0.97% |  |  |  |  |
| CSCC[C@H](NC=O)C(=O)N[C@@H](CC(N)=O)C(=O)N[C@H](C(=O)NCC(=O)N[C@@H](CC(N)=O)C(=O)N[C@@H](C)C(=O)N[C@@H](CC(=O)O)C(=O)NP(=O)(OCCCN)OC[C@H]1O[C@@H](n2cnc3c(N)ncnc32)[C@H](O)[C@@H]1O)[C@@H](C)O (stereo partly shown) [R2N] (HELM PEPTIDE1{[O=C[*:2]].M.N.T.G.N.A.[NCCCOP(=O)(NC(=O)[C@H](CC(=O)O)N[*:1])OC[C@H]1O[C@@H](n2cnc3c(N)ncnc32)[C@H](O)[C@@H]1O]}$$$$V2.0) | no bacteriostatic effects | 88.79 ± 0.88% | 37.7 ± 1.1% |  |  |  |  |
| CSCC[C@H](NC=O)C(=O)N1CCC[C@H]1C(=O)N[C@H](C(=O)NCC(=O)N[C@@H](CC(N)=O)C(=O)N[C@@H](C)C(=O)N[C@@H](CC(=O)O)C(=O)NP(=O)(OCCCN)OC[C@H]1O[C@@H](n2cnc3c(N)ncnc32)[C@H](O)[C@@H]1O)[C@@H](C)O (stereo partly shown) [R2P] (HELM PEPTIDE1{[O=C[*:2]].M.P.T.G.N.A.[NCCCOP(=O)(NC(=O)[C@H](CC(=O)O)N[*:1])OC[C@H]1O[C@@H](n2cnc3c(N)ncnc32)[C@H](O)[C@@H]1O]}$$$$V2.0) | no bacteriostatic effects | 86.9 ± 1.24% | 42.8 ± 0.76% |  |  |  |  |
| CSCC[C@H](NC=O)C(=O)N[C@@H](Cc1c[nH]c2ccccc12)C(=O)N[C@H](C(=O)NCC(=O)N[C@@H](CC(N)=O)C(=O)N[C@@H](C)C(=O)N[C@@H](CC(=O)O)C(=O)NP(=O)(OCCCN)OC[C@H]1O[C@@H](n2cnc3c(N)ncnc32)[C@H](O)[C@@H]1O)[C@@H](C)O (stereo partly shown) [R2W] (HELM PEPTIDE1{[O=C[*:2]].M.W.T.G.N.A.[NCCCOP(=O)(NC(=O)[C@H](CC(=O)O)N[*:1])OC[C@H]1O[C@@H](n2cnc3c(N)ncnc32)[C@H](O)[C@@H]1O]}$$$$V2.0) | no bacteriostatic effects | 91.3 ± 1.26% | 41.3 ± 1.03% | bacteriostatic |  |  |  |
| MRPGNAN [T3P] | no bacteriostatic effects |  |  |  | no longer degraded by trypsin; also recorded: exhibited resistance to trypsin |  |  |
| MRPTGNAN | no bacteriostatic effects |  |  |  | no longer degraded by trypsin; also recorded: exhibited resistance to trypsin |  |  |
| microcin J25 (GGAGHVPEYFVGIGTPISFYG; ends and bridges not checked; UniProt Q9X2V7 38-58, looked up) [microcin studied by Yu et al] |  |  |  |  |  | stable | completely degraded |

Reference: paper PMC10525924, “Engineering and Purification of Microcin C7 Variants Resistant to Trypsin and Analysis of Their Biological Activity” (Antibiotics, 2023)
